Measured values: ChEMBL document CHEMBL1122832, “4-substituted 5-[m-(trifluoromethyl)phenoxy]primaquine analogues as potential antimalarial agents” (1985)
Where “and” joins values, the source holds several entries; their conditions need not be identical. Equal values may be shown once.

Legend:
Assay type in all cases: functional
Mus musculus [1] = experiment: Antimalarial activity against Plasmodium berghei in mice (Mus musculus) at a dose of 20 mg/kg and activity expressed as number cures surviving 60 days
Mus musculus [2] = experiment: Antimalarial activity against Plasmodium berghei in mice (Mus musculus) at a dose of 160 mg/kg and activity expressed as number cures surviving 60 days
Plasmodium cynomolgi [3] = experiment: Antimalarial activity against Plasmodium cynomolgi infected Rhesus monkeys (Macaca mulatta) at 0.1 mg/kg; cured 0 of 1
Mus musculus [4] = experiment: Antimalarial activity against Plasmodium berghei in mice (Mus musculus) at a dose of 640 mg/kg and activity expressed as number cures surviving 60 days
Plasmodium cynomolgi [5] = experiment: Antimalarial activity against Plasmodium cynomolgi infected Rhesus monkeys (Macaca mulatta) at 0.316 mg/kg dose; Cured 2 of 2
Mus musculus [6] = experiment: Antimalarial activity against Plasmodium berghei in mice (Mus musculus) at a dose of 40 mg/kg and activity expressed as number cures surviving 60 days
Mus musculus [7] = experiment: Antimalarial activity against Plasmodium berghei in mice (Mus musculus) at a dose of 640 mg/kg and activity expressed as toxic deaths on days 2-5
Plasmodium cynomolgi [8] = experiment: Antimalarial activity against Plasmodium cynomolgi infected Rhesus monkeys (Macaca mulatta) at 1.0 mg/kg; cured 2 of 2
Mus musculus [9] = experiment: Mean survival time of mice(Plasmodium berghei) at a dose of 40 mg/kg, total no. of mice = 5
Mus musculus [10] = experiment: Mean survival time of mice(Plasmodium berghei) at a dose of 640 mg/kg, total no. of mice = 5
Mus musculus [11] = experiment: Mean survival time of mice(Plasmodium berghei) at a dose of 160 mg/kg, total no. of mice = 5
Plasmodium cynomolgi [12] = experiment: Antimalarial activity against Plasmodium cynomolgi infected Rhesus monkeys (Macaca mulatta) at 1.0 mg/kg; relapses
Plasmodium cynomolgi [13] = experiment: Antimalarial activity against Plasmodium cynomolgi infected Rhesus monkeys (Macaca mulatta) at 1.0 mg/kg;cured 0 of 2
Mus musculus [14] = experiment: Antimalarial activity against Plasmodium berghei yoelii in mice (Mus musculus) at a dose of 160 mg/kg administered by subcutaneous and activity expressed as cures; 2/25
Plasmodium cynomolgi [15] = experiment: Antimalarial activity against Plasmodium cynomolgi infected Rhesus monkeys (Macaca mulatta) at 0.1 mg/kg; cured 0 of 2
Mus musculus [16] = experiment: Antimalarial activity against Plasmodium berghei in mice (Mus musculus) at a dose of 80 mg/kg and activity expressed as number cures surviving 60 days
Mus musculus [17] = experiment: Antimalarial activity against Plasmodium berghei in mice (Mus musculus) at a dose of 320 mg/kg and activity expressed as number cures surviving 60 days
Plasmodium cynomolgi [18] = experiment: Antimalarial activity against Plasmodium cynomolgi infected Rhesus monkeys (Macaca mulatta) at 0.1 mg/kg; relapses in 2 of 2
Mus musculus [19] = experiment: Mean survival time of mice(Plasmodium berghei) at a dose of 10 mg/kg, total no. of mice = 5
Mus musculus [20] = experiment: Antimalarial activity against Plasmodium berghei in mice (Mus musculus) at a dose of 160 mg/kg and activity expressed as toxic deaths on days 2-5
Mus musculus [21] = experiment: Mean survival time of mice(Plasmodium berghei) at a dose of 5 mg/kg, total no. of mice = 5
Mus musculus [22] = experiment: Antimalarial activity against Plasmodium berghei yoelii in mice (Mus musculus) at a dose of 40 mg/kg administered subcutaneously and activity expressed as cures; 5/25; settings: route subcutaneous
Mus musculus [23] = experiment: Antimalarial activity against Plasmodium berghei yoelii in mice (Mus musculus) at a dose of 10 mg/kg administered subcutaneously and activity expressed as cures; 6/25; settings: route subcutaneous
Mus musculus [24] = experiment: Antimalarial activity against Plasmodium berghei yoelii in mice (Mus musculus) at a dose of 40 mg/kg administered by peroral and activity expressed as cures; 4/5; settings: route oral
Mus musculus [25] = experiment: Antimalarial activity against Plasmodium berghei yoelii in mice (Mus musculus) at a dose of 10 mg/kg administered by peroral and activity expressed as cures; 5/5; settings: route oral
Mus musculus [26] = experiment: Antimalarial activity against Plasmodium berghei yoelii in mice (Mus musculus) at a dose of 2.5 mg/kg administered by subcutaneous and activity expressed as cures; 1/5
Plasmodium cynomolgi [27] = experiment: Antimalarial activity against Plasmodium cynomolgi infected Rhesus monkeys (Macaca mulatta) at 0.316 mg/kg; cured 1 of 2
Mus musculus [28] = experiment: Antimalarial activity against Plasmodium berghei yoelii in mice (Mus musculus) at a dose of 10 mg/kg administered by subcutaneous and activity expressed as cures; 8/10
Plasmodium cynomolgi [29] = experiment: Antimalarial activity as relapses in Plasmodium cynomolgi infected Rhesus monkeys (Macaca mulatta) at 0.1 mg/kg
Mus musculus [30] = experiment: Antimalarial activity against Plasmodium berghei yoelii in mice (Mus musculus) at a dose of 2.5 mg/kg administered by peroral and activity expressed as cures; 0/5; settings: route oral
Mus musculus [31] = experiment: Antimalarial activity against Plasmodium berghei yoelii in mice (Mus musculus) at a dose of 160 mg/kg administered subcutaneously and activity expressed as cures; […]; settings: route subcutaneous
Plasmodium cynomolgi [32] = experiment: Antimalarial activity against Plasmodium cynomolgi infected Rhesus monkeys (Macaca mulatta) at 0.316 mg/kg; relapses
Mus musculus [33] = experiment: Antimalarial activity against Plasmodium berghei yoelii in mice (Mus musculus) at a dose of 40 mg/kg administered subcutaneously and activity expressed as cures; 9/10; settings: route subcutaneous
Mus musculus [34] = experiment: Antimalarial activity against Plasmodium berghei yoelii in mice (Mus musculus) at a dose of 10 mg/kg administered perorally and activity expressed as cures; 0/15; settings: route oral
Mus musculus [35] = experiment: Antimalarial activity against Plasmodium berghei yoelii in mice (Mus musculus) at a dose of 2.5 mg/kg administered subcutaneously and activity expressed as cures; 0/5; settings: route subcutaneous
Mus musculus [36] = experiment: Antimalarial activity against Plasmodium berghei yoelii in mice (Mus musculus) at a dose of 160 mg/kg administered subcutaneously and activity expressed as cures; 10/10; settings: route subcutaneous
Mus musculus [37] = experiment: Antimalarial activity against Plasmodium berghei yoelii in mice (Mus musculus) at a dose of 10 mg/kg administered subcutaneously and activity expressed as cures; 9/15; settings: route subcutaneous
Mus musculus [38] = experiment: Antimalarial activity against Plasmodium berghei yoelii in mice (Mus musculus) at a dose of 40 mg/kg administered by subcutaneous and activity expressed as cures; 12/15
Mus musculus [39] = experiment: Mean survival time of mice(Plasmodium berghei) at a dose of 20 mg/kg, total no. of mice = 5
Mus musculus [40] = experiment: Antimalarial activity against Plasmodium berghei yoelii in mice (Mus musculus) at a dose of 10 mg/kg administered by subcutaneous and activity expressed as cures; 10/15
Mus musculus [41] = experiment: Antimalarial activity against Plasmodium berghei yoelii in mice (Mus musculus) at a dose of 2.5 mg/kg administered by subcutaneous and activity expressed as cures; 0/10
Mus musculus [42] = experiment: Antimalarial activity against Plasmodium berghei yoelii in mice (Mus musculus) at a dose of 160 mg/kg administered by subcutaneous and activity expressed as toxic
Mus musculus [43] = experiment: Mean survival time of mice(Plasmodium berghei) at a dose of 320 mg/kg, total no. of mice = 5
Mus musculus [44] = experiment: Antimalarial activity against Plasmodium berghei yoelii in mice (Mus musculus) at a dose of 40 mg/kg administered by subcutaneous and activity expressed as cures; 14/15
Mus musculus [45] = experiment: Antimalarial activity against Plasmodium berghei yoelii in mice (Mus musculus) at a dose of 2.5 mg/kg administered perorally and activity expressed as cures; 3/10; settings: route oral
Mus musculus [46] = experiment: Antimalarial activity against Plasmodium berghei yoelii in mice (Mus musculus) at a dose of 160 mg/kg administered subcutaneously and activity expressed as cures; settings: route subcutaneous
Plasmodium cynomolgi [47] = experiment: Antimalarial activity against Plasmodium cynomolgi infected Rhesus monkeys (Macaca mulatta) at 1.0 mg/kg; cured 0 of 1
Mus musculus [48] = experiment: Antimalarial activity against Plasmodium berghei in mice (Mus musculus) at a dose of 64 mg/kg and activity expressed as toxic deaths on days 2-5
Mus musculus [49] = experiment: Antimalarial activity against Plasmodium berghei yoelii in mice (Mus musculus) at a dose of 2.5 mg/kg and activity expressed as toxic
Mus musculus [50] = experiment: Antimalarial activity against Plasmodium berghei yoelii in mice (Mus musculus) at a dose of 40 mg/kg administered perorally and activity expressed as cures; settings: route oral
Mus musculus [51] = experiment: Antimalarial activity against Plasmodium berghei yoelii in mice (Mus musculus) at a dose of 10 mg/kg administered by peroral and activity expressed as cures; 3/10; settings: route oral
Mus musculus [52] = experiment: Mean survival time of mice(Plasmodium berghei) at a dose of 80 mg/kg, total no. of mice = 5
Mus musculus [53] = experiment: Antimalarial activity against Plasmodium berghei in mice (Mus musculus) at a dose of 320 mg/kg and activity expressed as toxic deaths on days 2-5
Plasmodium cynomolgi [54] = experiment: Antimalarial activity against Plasmodium cynomolgi infected Rhesus monkeys (Macaca mulatta) at 1.0 mg/kg; cured 1 of 2
Plasmodium cynomolgi [55] = experiment: Antimalarial activity against Plasmodium cynomolgi in Rhesus monkeys (Macaca mulatta) at 0.316 mg/kg; cured 0 of 2

Compound: COc1cc(NC(C)CCCN)c2nccc(C)c2c1Oc1cccc(C(F)(F)F)c1 (stereo unspecified)
- Cures (Mus musculus [1]): 5
- Cures (Mus musculus [2]): 5
- Cures (Plasmodium cynomolgi [3]): 0
- Cures (Mus musculus [4]): 1
- Cures (Plasmodium cynomolgi [5]): 2
- Cures (Mus musculus [6]): 5
- Toxic (Mus musculus [7]): 4
- Cures (Plasmodium cynomolgi [8]): 2

Compound: C=Cc1ccnc2c(NC(C)CCCN)cc(OC)c(Oc3cccc(C(F)(F)F)c3)c12 (stereo unspecified)
- Delta MST (Mus musculus [9]): -0.1
- Delta MST (Mus musculus [10]): 8.1
- Delta MST (Mus musculus [11]): 3.7
- Relapses (Plasmodium cynomolgi [12]): 12 and 19
- Cures (Plasmodium cynomolgi [13]): 0

Compound: CCc1ccnc2c(NC(C)CCCN)cc(OC)c(Oc3cccc(C(F)(F)F)c3)c12 (stereo unspecified)
- Cures (Mus musculus [1]): 3
- Cures (Mus musculus [2]): 5
- Cures (Mus musculus [14]): 2
- Cures (Plasmodium cynomolgi [15]): 0
- Cures (Mus musculus [4]): 1
- Cures (Mus musculus [16]): 4
- Cures (Mus musculus [17]): 5
- Relapses (Plasmodium cynomolgi [18]): 20
- Cures (Plasmodium cynomolgi [5]): 2
- Cures (Mus musculus [6]): 4
- Delta MST (Mus musculus [19]): 5.3
- Toxic (Mus musculus [20]): 3
- Delta MST (Mus musculus [21]): 1.7
- Cures (Mus musculus [22]): 5
- Cures (Plasmodium cynomolgi [8]): 2
- Cures (Mus musculus [23]): 6

Compound: COCc1ccnc2c(NC(C)CCCN)cc(OC)c(Oc3cccc(C(F)(F)F)c3)c12 (stereo unspecified)
- Cures (Mus musculus [1]): 1
- Cures (Mus musculus [24]): 4
- Cures (Mus musculus [2]): 4
- Cures (Plasmodium cynomolgi [15]): 0
- Cures (Mus musculus [4]): 2
- Cures (Mus musculus [25]): 5
- Cures (Mus musculus [16]): 5
- Cures (Mus musculus [17]): 4
- Cures (Mus musculus [26]): 1
- Cures (Plasmodium cynomolgi [27]): 1
- Cures (Mus musculus [28]): 8
- Relapses (Plasmodium cynomolgi [29]): 8
- Cures (Mus musculus [6]): 5
- Cures (Mus musculus [30]): 0
- Cures (Mus musculus [31]): 5
- Delta MST (Mus musculus [19]): 6.6
- Relapses (Plasmodium cynomolgi [32]): 28
- Delta MST (Mus musculus [21]): 2.8
- Cures (Mus musculus [33]): 9
- Cures (Plasmodium cynomolgi [8]): 2

Compound: COc1cc(NC(C)CCCN)c2nccc(C(OC)OC)c2c1Oc1cccc(C(F)(F)F)c1 (stereo unspecified)
- Delta MST (Mus musculus [9]): 8.5
- Cures (Mus musculus [24]): 4
- Cures (Mus musculus [34]): 0
- Cures (Mus musculus [35]): 0
- Cures (Mus musculus [2]): 3
- Cures (Mus musculus [36]): 10
- Cures (Mus musculus [37]): 9
- Cures (Mus musculus [16]): 1
- Cures (Mus musculus [17]): 2
- Cures (Mus musculus [30]): 0
- Delta MST (Mus musculus [19]): 2.5
- Cures (Mus musculus [38]): 12
- Relapses (Plasmodium cynomolgi [12]): 24 and 44
- Delta MST (Mus musculus [21]): 1.9
- Toxic (Mus musculus [7]): 5
- Cures (Plasmodium cynomolgi [13]): 0
- Delta MST (Mus musculus [39]): 5.5

Compound: COc1cc(NC(C)CCCN)c2nccc(CO)c2c1Oc1cccc(C(F)(F)F)c1 (stereo unspecified)
- Delta MST (Mus musculus [9]): 3.8
- Cures (Mus musculus [40]): 10
- Cures (Mus musculus [41]): 0
- Toxic (Mus musculus [42]): 2
- Delta MST (Mus musculus [43]): 13.1
- Cures (Mus musculus [44]): 14
- Cures (Mus musculus [16]): 1
- Cures (Mus musculus [45]): 3
- Cures (Mus musculus [46]): 3
- Cures (Plasmodium cynomolgi [47]): 0
- Toxic (Mus musculus [48]): 4
- Delta MST (Mus musculus [19]): 1.4
- Toxic (Mus musculus [49]): 7
- Delta MST (Mus musculus [11]): 14.8
- Cures (Mus musculus [50]): 10
- Delta MST (Mus musculus [21]): 0.6
- Cures (Mus musculus [51]): 3
- Delta MST (Mus musculus [39]): 3.6

Compound: COc1cc(NC(C)CCCN)c2ncccc2c1.O=P(O)(O)O.O=P(O)(O)O (stereo unspecified) [PRIMAQUINE PHOSPHATE]
- Delta MST (Mus musculus [52]): 9
- Toxic (Mus musculus [20]): 2
- Toxic (Mus musculus [53]): 5
- Toxic (Mus musculus [7]): 5

Compound: COc1cc(NC(C)CCCN)c2ncccc2c1 (stereo unspecified) [PRIMAQUINE]
- Cures (Plasmodium cynomolgi [15]): 0
- Cures (Plasmodium cynomolgi [54]): 1
- Cures (Plasmodium cynomolgi [55]): 0
